Assay results from US20150237877A1, “METHODS OF HANDLING PERSIMMONS” (AGROFRESH INC., priority 2012, published 2015).

Experiments:
Format in all cases: in vivo, Persimmon (Diasoyros kaki)
[1] = system: persimmons, variety Giombo; assay: Example 1: pulp firmness of persimmons, MCP before storage, ethanol after storage; conditions: for Pulp Firmness, Day 0 / Pulp Firmness, Day 1 / Pulp Firmness, Day 4: 1000 ppb of MCP
Description: Persimmons are harvested in Mogi das Cruzes—SP—Brazil and packed in RPC (Recycle Plastic Container) and shipped to Piracicaba—SP. At the same day of harvest part of the persimmons are packed in MAP bags. • Location: Brazil • Variety: Giombo (astringent and need to be treated with ethanol to be ready to eat) • Storage at 12° C. for 15 days • MAP Bag: a Nylon bag with dimensions of 27″ (68.6 cm) width by 28″ (71.1 cm) length made from Kenylon 6250 Polyamide Film available from FM Packaging. • MCP application before the storage • Ethanol Application after the storage
For the MAP bag used, the base film has 25 microns thickness without laser holes. The oxygen (O2) permeation of the MAP bag used is about 28 cc/m^2-day and the CO2 permeation is about 227 cc/m^2-day. The bags are laser drilled in the length direction with 105 micron holes at two locations 9″ (22.9 cm) from each side of the bag. The hole spacing is 9.06 mm. The total number of laser holes in the 20″ (8″ for tie off) length direction of the bag are about 228 holes. At an average hole diameter of 105 micron (pi×r^2=8630 micron^2), the 228 holes can provide an open area of ˜2.0 mm^2. The OTR of the bag is calculated to be 32,250 cm^3/day.
(§1) The Test Protocol is as follows. 4 MAP bags are packed. Each bag holds approximately 16 kg (36 lb) of persimmons. One such bag is packed in each RPC. Total weight of persimmons in MAP bags is approximately 64 kg. Approximately 64 kg of persimmons are placed into RPC identical to those used for the MAP bags.
(§2) The MAP-packaged persimmons are packaged as follows: 80 fruits, approximately 16 kg are carefully placed into microperforated bags, and the bags are sealed by twisting the open side of the bag, folding down the twisted end, and placing a rubber band around the twisted and folded end of the bag.
(§3) The appropriate weight of persimmons is placed in each bag after harvest and shipment. Bags are placed in RPC carrying devices. Persimmons are moved to a Cold Room at 12° C. next.
(§4) On the same day the persimmons are bagged, each treatment set is marked, placed in a hermetical chamber at the Cold Room. All chambers are of equal size and packed the same way. Treatment lasts for 12 hours. In the chambers for the “MCP” treatment groups, at the beginning of the treatment period, SmartTabs™ tablets are placed in the chamber. The amount of SmartTab™ tablets is chosen to achieve the indicated concentration of 1-methylcyclopropene in the atmosphere of the chamber.
Persimmons used in this trial are an astringent variety. To remove the astringency the fruits were treated with ethanol after the 15 days at cold storage.
After removed the bags for the MAP bag groups, all the fruits are placed in a hermetical chamber and treated with ethanol (3.5 mL/kg of fruit) for 12 hours.
After the treatment in the chambers, the RPCs are moved into racks at room temperature for storage and observation.
Firmness evaluation is as follows. Day “zero” was the day the persimmons are harvested and Day “one” is the day the persimmons are removed from the ethanol treatment.
(§5) For the Pulp Firmness evaluation, the persimmons have the skin removed with a peeler and the pulp firmness is measured with a Firmness Texture Analyzer (FTA) with a probe of 8 mm.

[2] = system: persimmons; assay: Example 2: pulp firmness of persimmons, 1-MCP and ethanol before storage; conditions: for Pulp Firmness, Day 0 / Pulp Firmness, Day 1 / Pulp Firmness, Day 4 / Pulp Firmness, Day 7 / Pulp Firmness, Day 10: 1000 ppb of MCP
Description: This Example uses a similar test to Example 1 but with the ethanol application before the storage, at the same time as 1-MCP application.
Persimmons are harvested in Mogi das Cruzes—SP—Brazil and packed in RPC (Recycle Plastic Container) and shipped to Piracicaba—SP. At the same day of harvest part of the persimmons are packed in MAP bags.
as §1, §2, §3
On the same day the persimmons are bagged, each treatment set is marked, placed in a hermetical chamber at the Cold Room. All chambers are of equal size and packed the same way. Treatment lasts for 12 hours. In the chambers for the “MCP” treatment groups, at the beginning of the treatment period, SmartTabs™ tablets are placed in the chamber. The amount of SmartTab™ tablets is chosen to achieve the indicated concentration of 1-methylcyclopropene in the atmosphere of the chamber. At the same time the persimmons are exposed to ethanol with the purpose of removing the astringency (3.5 mL/kg of fruit).
After the storage at Cold Room, the bags are removed and the RPCs are moved into racks at room temperature for storage and observation.
Evaluation firmness is as follows. Day “zero” is the day the persimmons are harvested and Day “one” is the day the persimmons are removed from the cold storage.
as §5

[3] = system: persimmons, variety Fuyu; assay: Example 3: pulp firmness of persimmons, MCP before storage; conditions: for Pulp Firmness, Days 0 / Pulp Firmness, Days 3 / Pulp Firmness, Days 6: 500 ppb of MCP; for Pulp Firmness, Days 0: Day 0 after 60 days cold storage; for Pulp Firmness, Days 3: Day 3 after 60 days cold storage; for Pulp Firmness, Days 6: Day 6 after 60 days cold storage
Description: Persimmons are harvested in Madera—Calif. —USA and packed in cardboard boxes and shipped to Davis—Calif. At the same day of harvest part of the persimmons are packed in MAP bags. • Location: USA • Variety: Fuyu (non astringent, doesn't need ethanol application, ready to eat after harvest) • Storage at 0° C. for 60 days • MCP application before the storage • MAP Bag: Amcor bag type 30EF90.
The Amcor bag type 30EF90 has dimensions of 39.5″ (100.3 cm) wide and 35″ (88.9 cm) long. The bag is not perforated and has 25 microns thickness with an oxygen (O2) permeability of 6750 cc/[m^2 day]. The OTR of the bag is calculated to be 7560 cm^3/day.
The Test Protocol is as follows. 4 MAP bags are packed. Each bag holds approximately 10 kg (22.5 lb) of persimmons. One such bag is packed in each RPC (Recycle Plastic Container). Total weight of persimmons in MAP bags is approximately 40 kg. Approximately 40 kg of persimmons are placed into RPC identical to those used for the MAP bags.
The MAP-packaged persimmons are packaged as follows: 80 fruits, approximately 10 kg were carefully placed into microperforated bags, and the bags are sealed by twisting the open side of the bag, folding down the twisted end, and placing a rubber band around the twisted and folded end of the bag.
The appropriate weight of persimmons is placed in each bag after harvest and shipment. Bags are placed in RPC carrying devices. Persimmons then are moved to a Cold Room at 0° C.
as §4
After 60 days of storage at Cold Room, the bags are removed and the RPCs are moved into racks at room temperature for storage and observation.
Evaluation firmness is as follows. Day “zero” is the day the persimmons are removed from the cold storage.
as §5

[4] = system: persimmons, variety Rojo Brillante; assay: Example 4: pulp firmness of persimmons, MCP before storage, CO2 astringency removal after storage; conditions: cold storage, then room temperature for 7 days, MCP 600 ppb where applied
Description: Persimmons are harvested in Valencia—Spain and in the packing house part of the fruits are packed in plastic boxes and the other part is packed in MAP bags. • Location: Spain • Variety: Rojo Brillante (astringent, need CO2 application, ready to eat after astringency removal process) • Storage at 0° C. for 72 days • MCP application before the storage • MAP Bag: PE/EVA OP and Nylon bag with dimensions of 27″ (68.6 cm) width by 28″ (71.1 cm) length made from Kenylon 6250 Polyamide Film available from FM • Packaging
The Test Protocol is as follows. • a. PE/EVA OP Bags: 3 kg (6.6 lb) of fruits per bag, 5 bags per box and 6 RPC boxes • b. PE/EVA 8P Bags: 1 kg (2.2 lb) of fruits per bag, 15 bags per box and 6 RPC boxes • c. Nylon 0.2 and 0.35: 10 kg (22.5 lb) of fruits per bag, 2 bag per box and 6 RPC boxes • d. No Bag: 20 kg of fruits per box and 6 RPC boxes
The MAP-packaged persimmons are packaged as follows: fruits are carefully placed into microperforated bags, and the bags are sealed by twisting the open side of the bag, folding down the twisted end, and placing a rubber band around the twisted and folded end of the bag.
The appropriate weight of persimmons is placed in each bag after harvest and shipment. […]
For the Pulp Firmness evaluation, the persimmons have the skin removed with a peeler and the pulp firmness is measured with a Manual Penetrometer with a probe of 8 mm.

[5] = Day 0 = day of harvest, MCP 1000 ppb where applied

CC1=CC1 [SmartFresh, 1-methylcyclopropene]
Pulp Firmness, Day 0 ([1]; Bag MAP): 20.99 lbf
Pulp Firmness, Day 1 ([1]; Bag MAP): 18.62 lbf
Pulp Firmness, Day 4 ([1]; Bag MAP, Day 4): 18.18 lbf
Firmness results, Day 0 [1, 5]: 20.99 lbf
Firmness results, Day 1 ([1]; Day 1 = day removed from ethanol treatment, after 15 days at 12° C., MCP 1000 ppb where applied): 17.87 lbf
Firmness difference (Δ) as compared to the control group, Day 4 ([1]; Day 4): 0.89 lbf
Firmness results, Day 4 ([1]; Day 4, room temperature after 15 days at 12° C. and ethanol, MCP 1000 ppb where applied): 15.09 lbf
Firmness difference (Δ) as compared to the control group, Day 7 ([1]; Day 7): 1.55 lbf
Firmness results, Day 7 ([1]; Day 7, room temperature after 15 days at 12° C. and ethanol, MCP 1000 ppb where applied): 13.70 lbf
Firmness results, Day 10 ([1]; Day 10, room temperature after 15 days at 12° C. and ethanol, MCP 1000 ppb where applied): 12.62 lbf
Pulp Firmness, Day 0 ([1]; No Bag): 20.99 lbf
Pulp Firmness, Day 1 ([1]; No Bag): 16.65 lbf
Pulp Firmness, Day 4 ([1]; No Bag, Day 4): 14.74 lbf
firmness provided to the persimmons ([1]; after 1 day at room temperature): 0.15 lbf
Pulp Firmness, Day 0 ([2]; Bag MAP): 20.99 lbf
Pulp Firmness, Day 1 ([2]; Bag MAP, Day 1): 18.16 lbf
Pulp Firmness, Day 4 ([2]; Bag MAP, Day 4): 16.94 lbf
Pulp Firmness, Day 7 ([2]; Bag MAP): 15.84 lbf
Pulp Firmness, Day 10 ([2]; Bag MAP): 14.23 lbf
Firmness results, Day 0 [2, 5]: 20.99 lbf
Firmness difference (Δ) as compared to the control group, Day 1 ([2]; Day 1): 0.15 lbf
Firmness results, Day 1 ([2]; Day 1 = day removed from the cold storage (12° C.), MCP 1000 ppb where applied): 16.65 lbf
Firmness difference (Δ) as compared to the control group, Day 4 ([2]; Day 4): −0.39 lbf
Firmness results, Day 4 ([2]; Day 4, room temperature after cold storage, MCP 1000 ppb where applied): 14.74 lbf
Pulp Firmness, Day 0 ([2]; No Bag): 20.99 lbf
Pulp Firmness, Day 1 ([2]; No Bag, Day 1): 17.87 lbf
Pulp Firmness, Day 4 ([2]; No Bag, Day 4): 15.09 lbf
Pulp Firmness, Day 7 ([2]; No Bag): 13.70 lbf
Pulp Firmness, Day 10 ([2]; No Bag): 12.62 lbf
firmness provided to the persimmons ([2]; after 7 day at room temperature): 1.55 lbf
Firmness results, d60 + 3 day ([3]; 60 days at 0° C. + 3 days at room temperature, MCP 500 ppb where applied): 9.1 lbf
Firmness results, d60 + 6 day ([3]; 60 days at 0° C. + 6 days at room temperature, MCP 500 ppb where applied): 6.7 lbf
Firmness results, d60 + 0 day ([3]; 60 days at 0° C., day removed from the cold storage, MCP 500 ppb where applied): 7.9 lbf
Pulp Firmness, Days 0 ([3]; Bag MAP (Amcor)): 11.1 lbf
Pulp Firmness, Days 3 ([3]; Bag MAP (Amcor)): 10.0 lbf
Pulp Firmness, Days 6 ([3]; Bag MAP (Amcor)): 9.9 lbf
Pulp Firmness, Days 0 ([3]; No Bag): 7.9 lbf
Pulp Firmness, Days 3 ([3]; No Bag): 9.1 lbf
Pulp Firmness, Days 6 ([3]; No Bag): 6.7 lbf
Firmness difference (Δ) as compared to the control group, d60 + 6 day ([3]; d60 + 6 day): 6.2 lbf
firmness provided to the persimmons / maintained higher than the untreated fruits ([3]; in vivo): 6.2 lbf
Firmness [4]: 3.33 kg
Δ, difference between the firmness for the treatment and the firmness for the No Bag treatment [4]: 1.33 kg
